We go through 34 compounds from patent US5158950A, “1,3-dithiol-2-ylidene derivatives and process for the preparation thereof” (Yuhan Corporation, Ltd., priority 1987, dated 1992).

A value given as a limit tells only on which side of the number the result lay.

For orientation: LD50 means the dose expected to kill half of the subjects tested. A lower LD50 goes with a more toxic substance.

The test system of data set [1] is serum ALT activity induced by CCl4. Nature of the data set: Protective effect against acute hepatic damage induced by carbon tetrachloride (serum ALT). The data set is classed as in vivo. Conditions: Mus musculus; mice, 50 mg/kg oral, 6 h before CCl4 (50 ul/kg oral); ALT 24 h after CCl4; read-out: Inhibitory (%): protective effect against increase of serum ALT activity induced by CCl4. The procedure: Principle; Carbon tetrachloride (CCl4) is a well-known hepatotoxic agent, thus widely used to produce experimental animal models for screening the potential drugs acting upon hepatic diseases. In this experiment test compounds were administered to mice prior to treatment with CCl4. 24 Hours after the CCl4 treatment, the animals were sacrificed and serum alanine aminotransferase (ALT) levels were determined. The hepatoprotective effect of a test compound was evaluated by the suppressive action against the increase of serum ALT induced by CCl4.
Method; The experimental animals were divided into normal, CCl4 treated and test compound treated groups. Each group consisted of 8 mice with body weight of 20-25 grams. The test compounds were suspended in 0.2% sodium carboxy methyl cellulose (CMC-Na) solution and administered orally at the dose of 50 mg/125 ml/kg body weight. Only the vehicle, 0.2% CMC-Na solution, was administered to the normal and to the CCl4 treated group instead of the test compound suspension. 6 Hours after the drug administration, the CCl4 solution in olive oil was administered orally to the CCl4 treated- and the test compound treated group at the dose of 50 ul/25 ml olive oil/kg body weight. The normal group was administered olive oil only at the same dose. 24 Hours after the CCl4 administration, blood samples were collected from the orbital sinus of the animals and the sera were obtained by centrifugation The serum ALT activities were monitored using an automatic blood analyzer (Gilford, SBA 300). The hepatoprotective effect of the test compounds was expressed by the suppressive percentage against the increase of serum ALT level induced by CCl4 calculated by the following formula; [formula]

Data set [2] in a line: Acute oral toxicity, median lethal dose (LD50). As to conditions: mouse, in vivo, male ICR mice, deaths counted for 14 days. The procedure: Each test compound was suspended in a 0.2% CMC-Na solution in various concentrations to make test suspension. The test suspensions were administered orally to male ICR mice (10 in each group) at various doses. The number of dead mice was counted for 14 days and the value of mediam lethal dose (LD50, g/kg) was calculated by the Hitchifield-Wilcoxon method.

On to `Cc1ccc(NC(=O)C(C(=O)OC(C)C)=C2SC=CS2)cc1` [17(e), Isopropyl 2-(1,3-dithiol-2-ylidene)-2-[N-(4-methylphenyl)carbamoyl]acetate], for which the inhibition in vivo at 50 mg/kg in data set [1] was 100%.

On to `Cc1cccc(NC(=O)C(C(=O)OC(C)C)=C2SC=CS2)c1C` [17(f), Isopropyl 2-(1,3-dithiol-2-ylidene)-2-[N-(2,3-dimethylphenyl)carbamoyl]acetate], for which the inhibition in vivo at 50 mg/kg in data set [1] came to 92%.

Consider `CC(C)OC(=O)C(C(=O)Nc1ccc(Cl)cc1)=C1SC=CS1` [17(g), Isopropyl 2-(1,3-dithiol-2-ylidene)-2-[N-(4-chlorophenyl)carbamoyl]acetate], for which, in data set [1], the inhibition in vivo at 50 mg/kg is 81.5%. Also, in data set [2], the LD50 at 336 h was greater than 5000 mg/kg.

Take `CC(C)OC(=O)C(C(=O)Nc1cccc(Cl)c1)=C1SC=CS1` [17(h), Isopropyl 2-(1,3-dithiol-2-ylidene)-2-[N-(3-chlorophenyl)carbamoyl]acetate]: in data set [1], the inhibition in vivo at 50 mg/kg was determined as 97.5%. In addition, in data set [2], the LD50 at 336 h was greater than 5000 mg/kg.

Turning to `CC(C)OC(=O)C(C(=O)Nc1ccc(F)cc1)=C1SC=CS1` [17(i), Isopropyl 2-(1,3-dithiol-2-ylidene)-2-[N-(4-fluorophenyl)carbamoyl]acetate], the inhibition in vivo at 50 mg/kg in data set [1] was 89.8%. Besides, the LD50 at 336 h in data set [2] was greater than 5000 mg/kg.

In turn, `CC(C)OC(=O)C(C(=O)Nc1ccccc1F)=C1SC=CS1` [17(j), Isopropyl 2-(1,3-dithiol-2-ylidene)-2-[N-(2-fluorophenyl)carbamoyl]acetate] registered a 50% lethal dose (LD50) at 336 h in data set [2] greater than 5000 mg/kg.

`COc1ccc(NC(=O)C(C(=O)OC(C)C)=C2SC=CS2)cc1` [17(l), Isopropyl 2-(1,3-dithiol-2-ylidene)-2-[N-(4-methoxyphenyl)carbamoyl]acetate]: the inhibition in vivo at 50 mg/kg in data set [1] was found to be 99.6%. The LD50 at 336 h in data set [2] was greater than 5000 mg/kg.

Take `CC(=O)Nc1ccc(NC(=O)C(C(=O)OC(C)C)=C2SC=CS2)cc1` [17(q), Isopropyl 2-(1,3-dithiol-2-ylidene)-2-[N-(4-acetamidophenyl)carbamoyl]acetate]: in data set [1], the inhibition in vivo at 50 mg/kg was determined as 78.2%. This compound also gave a median lethal dose (LD50) at 336 h in data set [2] greater than 5000 mg/kg.

As for `CC(=O)Nc1cccc(NC(=O)C(C(=O)OC(C)C)=C2SC=CS2)c1` [17(r), Isopropyl 2-(1,3-dithiol-2-ylidene)-2-[N-(3-acetamidophenyl)carbamoyl]acetate], the inhibition in vivo at 50 mg/kg in data set [1] is 46.6%.

On to `CC(C)OC(=O)C(C(=O)Nc1ccc(C(F)(F)F)cc1)=C1SC=CS1` [17(s), Isopropyl 2-(1,3-dithiol-2-ylidene)-2-[N-(4-trifluoromethylphenyl)carbamoyl]acetate], for which, in data set [1], the inhibition in vivo at 50 mg/kg amounted to 100%. In data set [2], this compound came in with an LD50 at 336 h greater than 4000 mg/kg.

As for `CC(C)OC(=O)C(C(=O)Nc1cccc(C(F)(F)F)c1)=C1SC=CS1` [17(t), Isopropyl 2-(1,3-dithiol-2-ylidene)-2-[N-(3-trifluoromethylphenyl)carbamoyl]acetate], the inhibition in vivo at 50 mg/kg in data set [1] turned out to be 96%.

For `CC(C)OC(=O)C(C(=O)Nc1ccnc(O)n1)=C1SC=CS1` [18(m)], the inhibition in vivo at 50 mg/kg in data set [1] came to 12.8%. In data set [2], this compound came in with an LD50 at 336 h greater than 5000 mg/kg.

For the compound `CC(C)OC(=O)C(C(=O)Nc1nc2ccccc2s1)=C1SC=CS1` [18(n), Isopropyl 2-(1,3-dithiol-2-ylidene)-2-[N-(2-benzothiazolyl)carbamoyl]acetate], the inhibition in vivo at 50 mg/kg in data set [1] is 15.2%. For the same compound, the 50% lethal dose (LD50) at 336 h in data set [2] is greater than 5000 mg/kg.

Regarding `Cc1nc(NC(=O)C(C(=O)OC(C)C)=C2SC=CS2)sc1C` [19(f), Isopropyl 2-(1,3-dithiol-2-ylidene)-2-[N-(4,5-dimethyl-2-thiazolyl)carbamoyl]acetate], in data set [1], the inhibition in vivo at 50 mg/kg was found to be 91.4%. This compound also returned an LD50 at 336 h in data set [2] greater than 5000 mg/kg.

In the case of `CC(C)OC(=O)C(C(=O)Nc1ncccn1)=C1SC=CS1` [21(d), Isopropyl 2-1,3-dithiol-2-ylidene)-2-(N-pyrimidin-2-ylcarbamoyl) acetate], the inhibition in vivo at 50 mg/kg in data set [1] came to 99.8%. This compound also yielded an LD50 at 336 h in data set [2] of 3200 mg/kg.

As for `CC(C)OC(=O)C(C(=O)Nc1cccc(O)c1)=C1SC=CS1` [22(c), Isopropyl 2-(1,3-dithiol-2-ylidene)-2-[N-(3-hydroxyphenyl)carbamoyl]acetate], the inhibition in vivo at 50 mg/kg in data set [1] was found to be 93%. In data set [2], this compound registered an LD50 at 336 h greater than 5000 mg/kg.

In the case of `CC(C)OC(=O)C(C(=O)Nc1ccccc1O)=C1SC=CS1` [22(d), Isopropyl 2-(1,3-dithiol-2-ylidene)-2-[N-(2-hydroxyphenyl)carbamoyl]acetate], the inhibition in vivo at 50 mg/kg in data set [1] came out at 16.2%.

Turning to `CC(C)OC(=O)C(C(=O)NC1=NCCS1)=C1SC=CS1` [22(e), Isopropyl 2-(1,3-dithiol-2-ylidene)-2-[N-(2-thiazolin-2-yl)carbamoyl]acetate], the inhibition in vivo at 50 mg/kg in data set [1] worked out at 99.4%. This compound also showed a median lethal dose (LD50) at 336 h in data set [2] greater than 5000 mg/kg.

Regarding `CC(=O)Oc1ccc(NC(=O)C(C(=O)OC(C)C)=C2SC=CS2)cc1` [24(a), Isopropyl 2-(1,3-dithiol-2-ylidene)-2-[N-(4-acetoxyphenyl)carbamoyl]acetate], in data set [1], the inhibition in vivo at 50 mg/kg was found to be 102%.

In the case of `CC(=O)Oc1cccc(NC(=O)C(C(=O)OC(C)C)=C2SC=CS2)c1` [24(b)], in data set [1], the inhibition in vivo at 50 mg/kg was found to be 98%. This compound had an LD50 at 336 h in data set [2] greater than 5000 mg/kg.

Turning to `CC(=O)Oc1ccccc1NC(=O)C(C(=O)OC(C)C)=C1SC=CS1` [24(c), Isopropyl 2-(1,3-dithiol-2ylidene)-2-[N-(2-acetoxyphenyl)carbamoyl]acetate], in data set [1], the inhibition in vivo at 50 mg/kg is 22.8%.

As to `CC(C)OC(=O)C(C(=O)Nc1ccccc1C(=O)O)=C1SC=CS1` [25(a), Isopropyl 2-(1,3-dithiol-2-ylidene)-2-[N-(2-carboxyphenyl)carbamoyl]acetate], in data set [1], the inhibition in vivo at 50 mg/kg worked out at 74%. In data set [2], this compound displayed an LD50 at 336 h of 1200 mg/kg.

Regarding `CC(C)OC(=O)C(C(=O)N1CCOCC1)=C1SC=CS1` [26(a), Isopropyl 2-(1,3-dithiol-2-ylidene)-2-(4-morpholinylcarbonyl)acetate], the inhibition in vivo at 50 mg/kg in data set [1] was 66.5%.

Turning to `CC(C)OC(=O)C(C(=O)N1CCN(C)CC1)=C1SC=CS1` [26(b), Isopropyl 2-(1,3-dithiol-2-ylidene)-2-[(4-methylpiperazin-1-yl)carbonyl]acetate], the inhibition in vivo at 50 mg/kg in data set [1] worked out at 46%.

Consider `CC(C)OC(=O)C(C(=O)N1CCCC1)=C1SC=CS1` [26(c), Isopropyl 2-(1,3-dithiol-2-ylidene)-2-(1-pryrrolidinylcarbaonyl) acetate], for which the inhibition in vivo at 50 mg/kg in data set [1] came out at 90.5%.

As to `CC(C)OC(=O)C(C(=O)n1ccnc1)=C1SC=CS1` [26(d), Isopropyl 2-(1,3-dithiol-2-ylidene)-2-(1-imidazolylcarbaony)acetate], the inhibition in vivo at 50 mg/kg in data set [1] was 98%.

Take `CC(C)OC(=O)C(C(N)=O)=C1SC=CS1` [Example 9, Isopropyl 2-(1,3-dithiol-2-ylidene)-2-carbamoylacetate]: the inhibition in vivo at 50 mg/kg in data set [1] was 65.5%.

In the case of `CNC(=O)C(C(=O)OC(C)C)=C1SC=CS1` [Example 10, Isopropyl 2-(1,3-dithiol-2-ylidene)-2-(N-methylcarbamoyl) acetate], the inhibition in vivo at 50 mg/kg in data set [1] is 92%.

`CC(C)NC(=O)C(C(=O)OC(C)C)=C1SC=CS1` [Example 11, Isopropyl 2-(1,3-dithiol-2-ylidene)-2-(N-isopropylcarbamoyl)acetate]: the inhibition in vivo at 50 mg/kg in data set [1] turned out to be 49.4%. The same compound yielded an LD50 at 336 h in data set [2] of 2600 mg/kg.

Take `CC(C)OC(=O)C(C(=O)NC1CCCCC1)=C1SC=CS1` [Example 12, Isopropyl 2-(1,3-dithiol-2-ylidene)-2-(N-cyclohexylcarbamoyl)acetate]: in data set [1], the inhibition in vivo at 50 mg/kg turned out to be 98%.

Turning to `CCN(CC)C(=O)C(C(=O)OC(C)C)=C1SC=CS1` [Example 13, Isopropyl 2-(1,3-dithiol-2-ylidene)-2-(N,N-diethylcarbamoyl) acetate], the inhibition in vivo at 50 mg/kg in data set [1] worked out at 55.6%.

Take `CC(C)OC(=O)C(C(=O)N1CCCC1C(=O)O)=C1SC=CS1` (stereo not shown) [Example 15, Isopropyl 2-(1,3-dithiol-2-ylidene)-2-[(2-carboxypyrrolidin-1-yl)carbonyl]acetate]: in data set [1], the inhibition in vivo at 50 mg/kg is 14%.

Turning to `CC(C)OC(=O)C(C(=O)N(C)c1ccccc1)=C1SC=CS1` [Example 16, Isopropyl 2-(1,3-dithiol-2-ylidene)-2-(N-methyl-N-phenylcarbamoyl)acetate], the inhibition in vivo at 50 mg/kg in data set [1] worked out at 47.9%.

In the case of `COc1cccc(NC(=O)C(C(=O)OC(C)C)=C2SC=CS2)c1` [Example 17(o), isopropyl 2-(1,3-dithiol-2-ylidene)-2-[N-(3-methoxyphenyl)carbamoyl]acetate], the inhibition in vivo at 50 mg/kg in data set [1] stood at 100%.
